Test system: CECR2-BRD
Test: 2D 15N-HSQC NMR chemical shift perturbation titration
Assay type: binding, human
Conditions: 15N-labeled CECR2-BRD, 25°C; 3% DMSO, or NVS-CECR2–1 including 3% DMSO
Method: CECR2-BRD was expressed and purified for NMR experiments following previously established methods, [18]. Briefly, uniformly labeled ^15N CECR2-BRD samples in buffer containing 20 mM Tris-HCl pH 6.8, 150 mM NaCl, 1 mM TCEP, and 10% D2O were purified at 0.30 mM for chemical-shift perturbation experiments.
All two-dimensional (2D) ^15N-HSQC (heteronuclear single quantum […]) experiments were acquired at 25°C using a 600 MHz Bruker AVANCE III spectrometer equipped with a z-gradient 1.7 mm TCI probe at the National Magnetic Resonance Facility at Madison (NMRFAM). The experimental setup for all 2D experiments was kept similar to our previous studies, [18]. […] Chemical Shift Perturbations (CSP) from the final titration point were calculated and normalized as described by Williamson[21], using the equation: Δδ=√ΔδH^2+α⋅ΔδN^2 Where α=0.2 for glycine, and 0.14 for all other residues. ΔδH and ΔδN represent chemical shifts in ppm for hydrogen and nitrogen atoms, respectively. […] These were calculated using the standard deviation (Δ ppm/ Standard deviation ppm, where standard deviation was calculated for each histone ligand) of the Euclidean chemical change of the residues as described previously, [18].

| Structure (SMILES) | Chemical shift perturbations of CECR2-BRD residues (in words) |
| --- | --- |
| C[S+](C)[O-] [DMSO] | significant (> 1 Δppm) shifts in residues within the ZA loop and BC loop region |
| CCCS(=O)(=O)c1nc(NC2CC2)cc(-c2ccc3c(ccn3C3CC(C)(C)NC(C)(C)C3)c2)n1 [NVS-CECR2–1] | CSPs in some residues within αA, αB and αC helices |

Source: article doi:10.1101/2024.12.09.627393 (bioRxiv, 2024)
